In general, half-life refers to the time in which the quantity being followed falls by half.

The nature of series [1]: Stability against metabolizing enzymes in the liver (hepatic microsome). Particulars: time until remaining amount reached 50%, 37° C.; for half-life at 6 μg/mL: female, Sprague-Dawley (SD), rat, liver microsomes, pH 7.4, Half-life; for Half-life: female SD rat hepatic microsome, 6 μg/mL, pH 7.4. On the technique in general: Liver microsomes are vesicles of endoplasmic reticulum, rich in cytochrome P450 enzymes.

A further series addresses T1, ACAT2 (Mus musculus, UniProt O88908).
T1 construct: The resulting sediment was collected as a microsome fraction; from tissue; host or cells: mouse liver (hepatic microsome membrane fraction)
T1 sequence (O88908 1-525): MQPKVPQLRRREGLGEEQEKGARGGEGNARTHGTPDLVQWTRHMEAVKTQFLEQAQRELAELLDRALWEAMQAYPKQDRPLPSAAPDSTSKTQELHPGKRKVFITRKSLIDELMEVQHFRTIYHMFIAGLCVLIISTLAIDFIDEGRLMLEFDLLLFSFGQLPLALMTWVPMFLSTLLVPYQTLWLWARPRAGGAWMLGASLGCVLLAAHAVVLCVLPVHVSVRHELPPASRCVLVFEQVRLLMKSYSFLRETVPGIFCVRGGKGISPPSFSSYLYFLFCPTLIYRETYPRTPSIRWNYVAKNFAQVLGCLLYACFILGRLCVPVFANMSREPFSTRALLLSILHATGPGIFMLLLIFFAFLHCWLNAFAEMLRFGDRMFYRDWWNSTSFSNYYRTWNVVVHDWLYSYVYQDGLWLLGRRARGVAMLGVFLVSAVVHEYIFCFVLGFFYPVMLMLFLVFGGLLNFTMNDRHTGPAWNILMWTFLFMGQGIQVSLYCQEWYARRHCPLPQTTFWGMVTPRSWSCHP
In words: Measurement of ACAT2-inhibiting activity (murine hepatic microsome, [14C]cholesteryl oleate formation). The class given is biochemical. On the procedure:
The enzyme source which was used was a membrane fraction derived from murine hepatic microsome. Mouse livers were homogenized in buffer solution A (50 mM Tris HCl solution (pH 7.8), 1 mM ethylene diamine tetraacetate, and 1 mM phenylmethanesulfonyl fluoride) using a Potter-type homogenizer (Tokyo-Riko). The homogenate was centrifuged at 12000×g, and the supernatant was subjected to ultracentrifugation at 100000×g. The resulting sediment was collected as a microsome fraction, and this fraction was adjusted so as to have a protein concentration of 5 mg/mL using buffer solution A.
As a control, 10 μL of methanol were used in place of the pyripyropene derivative.
The chloroform layer was evaporated to dryness and was used to spot a thin layer chromatography plate (silica gel plate, Merck, 0.5 mm thickness). Elution for separation was carried out using hexane/diethyl ether/acetic acid (70:30:1, v/v) as an eluant.
wherein the background is the radioactivity of a thin layer chromatography plate which was not spotted.

[2] abbreviates: read-out: Inhibitory activity (concentration required for 50% inhibition of ACAT 2 = IC50); murine hepatic microsome membrane fraction, 5 min at 37° C.
[3] abbreviates: relative to PRD 043; class symbols.
The mark [4] stands for this setting: murine hepatic microsome membrane fraction, 5 min at 37° C.; read-out: Inhibitory activity (concentration required for 50% inhibition of ACAT 2 = IC50).

Like-named read-outs stand apart in the source and are kept apart here.

Consider `CC(=O)OCC1(C)C2C[C@H](OC(=O)c3ccccc3C)[C@@]3(C)Oc4cc(-c5cccnc5)oc(=O)c4[C@H](O)C3[C@@]2(C)CC[C@@H]1OC(C)=O` (some centres unmarked) [PRD007, reference compound], for which, in series [1], the half-life at 6 μg/mL was 60 min and the Half-life was below 1 h.

In the case of `CC(=O)OCC1(C)C2C[C@H](OC(=O)c3ccc(C)cc3)[C@@]3(C)Oc4cc(-c5cccnc5)oc(=O)c4[C@H](O)C3[C@@]2(C)CC[C@@H]1OC(C)=O` (some centres unmarked) [PRD009, reference compound], in series [1], the half-life at 6 μg/mL is 60 min and the Half-life is below 1 h.

In series [1], `CC(=O)OCC1(C)C2C[C@H](OC(=O)C3CCCCC3)[C@@]3(C)Oc4cc(-c5cccnc5)oc(=O)c4[C@H](O)C3[C@@]2(C)CC[C@@H]1OC(C)=O` (some centres unmarked) [PRD021, reference compound] had a half-life at 6 μg/mL of 60 min and a Half-life below 1 h.

`CCc1ccc(C(=O)O[C@H]2CC3C(C)(COC(C)=O)[C@@H](OC(C)=O)CC[C@]3(C)C3[C@@H](O)c4c(cc(-c5cccnc5)oc4=O)O[C@@]32C)cc1` (some centres unmarked) [PRD024, reference compound]: in series [1], the half-life at 6 μg/mL is 60 min and the Half-life is recorded as below 1 h.

For the compound `CC(=O)OCC1(C)C2C[C@H](OC(=O)c3cccc(Br)c3)[C@@]3(C)Oc4cc(-c5cccnc5)oc(=O)c4[C@H](O)C3[C@@]2(C)CC[C@@H]1OC(C)=O` (some centres unmarked) [PRD025, reference compound], in series [1], the half-life at 6 μg/mL was 60 min and the Half-life is recorded as below 1 h.

In series [1], `CC(=O)OCC1(C)C2C[C@H](OC(=O)c3ccccc3F)[C@@]3(C)Oc4cc(-c5cccnc5)oc(=O)c4[C@H](O)C3[C@@]2(C)CC[C@@H]1OC(C)=O` (some centres unmarked) [PRD026, reference compound] showed a half-life at 6 μg/mL of 60 min and a Half-life below 1 h.

Regarding `COc1cccc(C(=O)O[C@H]2CC3C(C)(COC(C)=O)[C@@H](OC(C)=O)CC[C@]3(C)C3[C@@H](O)c4c(cc(-c5cccnc5)oc4=O)O[C@@]32C)c1` (some centres unmarked) [PRD043, reference compound], the IC50 on ACAT2 (setting [2]) is above 10 nM. Further, on ACAT2 (relative to PRD 043; given as number), the “Specific activity ((IC50 of the test compound)/(IC50 of PRD 043))” value (from here on “Specific activity”) was determined as 1. In series [1], this compound had a half-life at 6 μg/mL of at least 540 min and a Half-life above 9 h.

In the case of `CC(C)C(=O)OCC1(C)C2C[C@H](OC(=O)c3ccc(C#N)cc3)[C@@]3(C)Oc4cc(-c5cccnc5)oc(=O)c4[C@H](O)C3[C@@]2(C)CC[C@@H]1OC(=O)C(C)C` (some centres unmarked) [PRD056, reference compound], at ACAT2 (setting [2]), the IC50 is above 10 nM. In addition, the “Specific activity” value at ACAT2 (setting [3]) is “− (0.1≦specific activity<1)”. In series [1], this compound gave a half-life at 6 μg/mL of at least 540 min and a Half-life above 9 h.

For the compound `CC(=O)O[C@H]1CC[C@@]2(C)C(C[C@H](OC(=O)c3ccc(C#N)cc3)[C@@]3(C)Oc4cc(-c5cccnc5)oc(=O)c4[C@H](O)C23)C1(C)C(=O)O` (some centres unmarked) [PRD069, 7-O-p-cyanobenzoyl-11-deacetoxymethyl-7-deacetyl-11-carboxy-pyripyropene A], the IC50 on ACAT2 (setting [4]) was below 0.5 nM. Also, the “Specific activity” value at ACAT2 (setting [3]) is “++++ (20<specific activity)”. In series [1], this compound had a half-life at 6 μg/mL of at least 540 min and a Half-life above 9 h.

Take `COC(=O)C1(C)C2C[C@H](OC(=O)c3ccc(C#N)cc3)[C@@]3(C)Oc4cc(-c5cccnc5)oc(=O)c4[C@H](O)C3[C@@]2(C)CC[C@@H]1OC(C)=O` (some centres unmarked) [PRD070, 7-O-p-cyanobenzoyl-11-deacetoxymethyl-7-deacetyl-11-methoxy-carbonylpyripyropene A]: the IC50 at ACAT2 (setting [4]) lay within 0.5 to 1 nM. Also, the “Specific activity” value at ACAT2 (setting [3]) is recorded as “+++ (10<specific activity≦20)”. In series [1], this compound gave a half-life at 6 μg/mL above 540 min.

Regarding `COc1ccc(CNC(=O)C2(C)C3C[C@H](OC(=O)c4ccc(C#N)cc4)[C@@]4(C)Oc5cc(-c6cccnc6)oc(=O)c5[C@H](O)C4[C@@]3(C)CC[C@@H]2OC(C)=O)c(OC)c1` (some centres unmarked) [PRD071, 7-O-p-cyanobenzoyl-11-deacetoxymethyl-7-deacetyl-11-(2,4-dimethoxybenzylamino)carbonylpyripyropene A], the IC50 on ACAT2 (setting [4]) was below 0.5 nM. Also, the “Specific activity” value on ACAT2 (setting [3]) is reported as “++++ (20<specific activity)”. In series [1], this compound yielded a half-life at 6 μg/mL of at least 540 min and a Half-life above 9 h.

`COc1ccc(C(OC)O[C@H]2CC3C4(C)CO[C@@H](c5ccccc5)O[C@H]4CC[C@]3(C)C3[C@@H](O)c4c(cc(-c5cccnc5)oc4=O)O[C@@]32C)cc1` (some centres unmarked) [PRD073, 1,11-O-benzylidene-1,7,11-trideacetyl-7-O-(1-methoxy-1-p-methoxyphenyl)methylpyripyropene A]: the IC50 on ACAT2 (setting [4]) lay in the range of 0.5 to 1 nM. Further, the “Specific activity” value at ACAT2 (setting [3]) was “+++ (10<specific activity≦20)”. In series [1], the half-life at 6 μg/mL is at least 540 min and the Half-life is recorded as above 9 h.

In the case of `CC(C)C(=O)OCC1(C)C2C[C@H](OC(=O)C3CCCCC3)[C@@]3(C)Oc4cc(-c5cccnc5)oc(=O)c4[C@H](O)C3[C@@]2(C)CC[C@@H]1OC(=O)C(C)C` (some centres unmarked) [PRD074, 7-O-cyclohexanecarbonyl-1,11-O-diisobutyryl-1,7,11-trideacetylpyripyropene A], the IC50 at ACAT2 (setting [4]) fell in the range of 0.5 to 1 nM. Also, the “Specific activity” value on ACAT2 (setting [3]) is on record as “+++ (10<specific activity≦20)”. In series [1], this compound showed a half-life at 6 μg/mL of at least 540 min and a Half-life above 9 h.

In the case of `CC(C)C(=O)OCC1(C)C2C[C@H](OC(=O)c3ccc([N+](=O)[O-])cc3)[C@@]3(C)Oc4cc(-c5cccnc5)oc(=O)c4[C@H](O)C3[C@@]2(C)CC[C@@H]1OC(=O)C(C)C` (some centres unmarked) [PRD079, 7-O-p-nitrobenzoyl-1,11-O-diisobutyryl-1,7,11-trideacetylpyripyropene A], the IC50 at ACAT2 (setting [4]) was in the range of 0.5 to 1 nM. The “Specific activity” value on ACAT2 (setting [3]) was “+++ (10<specific activity≦20)”. Further, in series [1], the half-life at 6 μg/mL is at least 540 min and the Half-life is above 9 h.

On to `CC12CO[C@@H](c3ccccc3)O[C@H]1CC[C@@]1(C)C2C[C@H](OC(=O)C2CCCCC2)[C@@]2(C)Oc3cc(-c4cccnc4)oc(=O)c3[C@H](O)C12` (some centres unmarked) [PRD080, 1,11-O-benzylidene-7-O-cyclohexanecarbonyl-1,7,11-trideacetylpyripyropene A], for which the IC50 on ACAT2 (setting [4]) was 0.5 to 1 nM. At ACAT2 (setting [3]), the “Specific activity” value is on record as “+++ (10<specific activity≦20)”. This compound also yielded a half-life at 6 μg/mL in series [1] above 540 min.

With `CC(=O)OCC1(C)C2C[C@H](OC(=O)c3ccc(C#N)cc3)[C@@]3(C)Oc4cc(-c5cccnc5)oc(=O)c4[C@H](O)C3[C@@]2(C)CC[C@@H]1OC(=O)C(C)C` (some centres unmarked) [PRD119, 7-O-p-cyanobenzoyl-1,7-dideacetyl-1-O-isobutyrylpyripyropene A], the IC50 at ACAT2 (setting [4]) was 0.5 to 1 nM. The “Specific activity” value on ACAT2 (setting [3]) was “++++ (20<specific activity)”. In series [1], the half-life at 6 μg/mL was at least 540 min and the Half-life is above 9 h.

As for `CC(=O)OCC1(C)C2C[C@H](OC(=O)c3ccc(C#N)cc3)[C@@]3(C)Oc4cc(-c5cccnc5)oc(=O)c4[C@H](O)C3[C@@]2(C)CC[C@@H]1OC(=O)c1ccccc1` (some centres unmarked) [PRD121, 7-O-p-cyanobenzoyl-1,7-dideacetyl-1-O-benzoylpyripyropene A], the IC50 on ACAT2 (setting [4]) was 0.5 to 1 nM. Besides, the “Specific activity” value at ACAT2 (setting [3]) is given as “+++ (10<specific activity≦20)”. Besides, in series [1], the half-life at 6 μg/mL is at least 540 min and the Half-life is above 9 h.

As for `CC12CO[C@@H](c3ccccc3)O[C@H]1CC[C@@]1(C)C2C[C@H](OC(=O)c2ccccc2)[C@@]2(C)Oc3cc(-c4cccnc4)oc(=O)c3[C@H](O)C12` (some centres unmarked) [PRD122, 1,11-O-benzylidene-7-O-benzoyl-1,7,11-trideacetylpyripyropene A], at ACAT2 (setting [4]), the IC50 lay within 0.5 to 1 nM. Besides, the “Specific activity” value at ACAT2 (setting [3]) is on record as “+++ (10<specific activity≦20)”. For the same compound, in series [1], the half-life at 6 μg/mL was at least 540 min and the Half-life is given as above 9 h.

On to `CN(C)c1ccc([C@@H]2OCC3(C)C4C[C@H](OC(=O)c5ccc(C#N)cc5)[C@@]5(C)Oc6cc(-c7cccnc7)oc(=O)c6[C@H](O)C5[C@@]4(C)CC[C@@H]3O2)cc1` (some centres unmarked) [PRD123, 1,11-O-p-dimethylaminobenzylidene-7-O-p-cyanobenzoyl-1,7,11-trideacetylpyripyropene A], for which, on ACAT2 (setting [4]), the IC50 is below 0.5 nM. The “Specific activity” value at ACAT2 (setting [3]) was “++++ (20<specific activity)”. In series [1], this compound registered a half-life at 6 μg/mL of at least 540 min and a Half-life above 9 h.
